Source: the NIST ThermoML archive (doi:10.1016/j.fluid.2015.10.044)
± gives the expanded uncertainty stated by the source.

Conditions: Pendant drop shape

SMILES | surface tension liquid-gas (298.1 K) | surface tension liquid-gas (318 K) | surface tension liquid-gas (343 K) | surface tension liquid-gas (328 K) | surface tension liquid-gas (318.1 K) | surface tension liquid-gas (338.5 K) | surface tension liquid-gas (342.9 K) | surface tension liquid-gas (307.9 K) | further results
CCn1cc[n+](C)c1.N#C[B-](C#N)(C#N)C#N [1-ethyl-3-methylimidazolium tetracyanoborate] | 49.1 ± 0.7 mN/m | 47.4 ± 0.7 mN/m | 45.4 ± 0.7 mN/m |  |  |  |  |  | surface tension liquid-gas (307.8 K): 48.3 ± 0.7 mN/m; surface tension liquid-gas (328.7 K): 46.6 ± 0.7 mN/m; surface tension liquid-gas (338.8 K): 45.8 ± 0.7 mN/m
CCn1cc[n+](C)c1.N#C[C-](C#N)C#N [1-ethyl-3-methyl-1H-imidazolium tricyanomethanide] |  |  | 47.9 ± 0.7 mN/m | 49.1 ± 0.7 mN/m |  |  |  |  | surface tension liquid-gas (298.3 K): 51.1 ± 0.7 mN/m; surface tension liquid-gas (308.1 K): 50.7 ± 0.7 mN/m; surface tension liquid-gas (317.9 K): 49.9 ± 0.7 mN/m; surface tension liquid-gas (338.9 K): 48.5 ± 0.7 mN/m
CCCCn1cc[n+](C)c1.N#C[S-] [1-butyl-3-methylimidazolium thiocyanate] | 44.6 ± 0.7 mN/m |  |  |  | 43 ± 0.6 mN/m | 41.9 ± 0.6 mN/m | 41.6 ± 0.6 mN/m |  | surface tension liquid-gas (308.2 K): 43.5 ± 0.7 mN/m; surface tension liquid-gas (328.3 K): 42.4 ± 0.6 mN/m
CCCCn1cc[n+](C)c1.N#CN=C=[N-] [1-butyl-3-methylimidazolium dicyanamide] |  |  |  |  | 49.7 ± 0.7 mN/m |  | 47.5 ± 0.7 mN/m | 50.3 ± 0.7 mN/m | surface tension liquid-gas (298.4 K): 50.6 ± 0.7 mN/m; surface tension liquid-gas (328.4 K): 48.6 ± 0.7 mN/m; surface tension liquid-gas (339 K): 48.1 ± 0.7 mN/m
CCCCCCn1cc[n+](C)c1.N#CN=C=[N-] [1-hexyl-3-methylimidazolium dicyanamide] |  |  |  |  |  | 40.5 ± 0.6 mN/m |  | 42.2 ± 0.6 mN/m | surface tension liquid-gas (298 K): 43 ± 0.6 mN/m; surface tension liquid-gas (318.4 K): 41.6 ± 0.6 mN/m; surface tension liquid-gas (328.2 K): 41 ± 0.6 mN/m; surface tension liquid-gas (342.7 K): 40.2 ± 0.6 mN/m
CCCCCCn1cc[n+](C)c1.N#C[B-](C#N)(C#N)C#N [1-hexyl-3-methylimidazolium tetracyanoborate] |  | 40 ± 0.6 mN/m |  | 39.2 ± 0.6 mN/m |  | 38.4 ± 0.6 mN/m | 38.2 ± 0.6 mN/m |  | surface tension liquid-gas (298.6 K): 41.5 ± 0.6 mN/m; surface tension liquid-gas (308.4 K): 40.8 ± 0.6 mN/m
